In publication PMC8097335, “A High‐Affinity Calmodulin‐Binding Site in the CyaA Toxin Translocation Domain is Essential for Invasion of Eukaryotic Cells” (Advanced Science, 2021):

Key:
[1] = Membrane permeabilization of ANTS/DPX-loaded LUVs
Protocol: To monitor membrane permeabilization induced by peptides, ANTS (fluorophore probe) and
DPX (quencher) were encapsulated into large unilamellar vesicles (LUVs). The LUVs were
prepared at a concentration of 10 mM lipid at a POPC:PO PG molar ratio of 8:2 containing 20
mM ANTS and 60 mM DPX. The multilamellar vesicle suspension was extrudedthrough 0.4-
and 0.2 μm polycarbonate filters to produce LUVs. The unencapsulated ANT S a nd DPX we re
removed by gel filtration with a 5 mL Sephadex G -25 column (GE Healthcare Life Sciences ).
For permeabilization assays, LUVs were incubated in buffer A at 0.45 mM lipid
concentration at 25°C in a 101-QS cuvette (Hellma, France) and under constant stirring.
excitation wavelength was set at 390 nm and the emission of ANTS was continuously
measured at 515 nm. The maximum intensity of permeabilization, corresponding to the
maximum recovery of ANTS fluorescence, was measured after addition of 0.1% of Triton
X100. The concentration of membrane-bound peptide s required to induce the recovery of half
intensity of the ANTS fluorescence (C P1/2) was extracted from the permeabilization intensity
a s a function of peptide concentration 1.
LUVs were incubated in buffer B at a lipid concentration of 0.45 mM.
After a few seconds of permeabilization,
holo-Ca M wa s added t o t he solution at a peptide:Ca M molar ratio of 1:3. EDT A wa s
subsequently added in excess to chelate calcium and convert holo -CaM to apo -C a M .

[2] = Synchrotron radiation circular dichroism, alpha-helical content (Bestsel); format: physicochemical; details: 25 °C, far-UV SRCD
Protocol: Synchrotron Radiation Circular Dichroism
Synchrotron radiation circular dichroism (SRCD) was performed on the DISCO beamline of the synchrotron SOLEIL (Saint -Aubin, France) . Spectra were recorded at 25°C with an integration time of 1.2 s and a bandwidth of 1 nm with a resolution of 1 nm. A far-UV spectrum represents the average of four individual scans. QS cells (Hellma, France) with a pathlength of 20, 50, 100 or 200 μm (depending on final protein concentrations) were used to record spectra in the fa r -UV range (from 190 to 250 nm). CD spectra of peptides and proteins were measured in buffers A and B, 20% of trifluoroethanol (TFE), in the presence of SUVs (POPC :PO PG 8: 2) or Ca M. Secondary structure content was estimated using Bestsel software […]
Table S8: Estimation of the α -helical content of P454-derived peptides. The secondary structure content is estimated using the on-line Bestsel software 17 available at http://bestsel.elte.hu/index.php. […]
peptide in buffer A, in 20% TFE and in the presence of POPC POPG (molar ratio 8:2) at 2 mM lipid concentration. The far -UV CD spectra of several P454-derived peptides are shown […]

[3] = Sedimentation velocity analytical ultracentrifugation; format: physicochemical; details: 57 µM peptide alone, 20 °C, buffer B
Source text: (§1) 400 nm at a scan rate of 100 nm/min, with an excitation wavelength of 280 nm. Fluorescence emission spectra were corrected for SUV or CaM baselines . Fluorescence intensity ratio at 330 nm over 370 nm was use d to measure the partition coefficient (K X) of peptides between the solution andmembrane s 1, 12 and the affinity (K d) of peptides for CaM 13.
(§2) Determination of partition coefficient KX and dissociation constant Kd from […]
(§3) The partition coefficient KX is defined as the ratio of protein in the lipid (PL) and in buffer […]
(§4) (PW) pha se s 12, 14, expressed by: KKXX = [LL ]? , giving[PPWW ] [PPWW ]= [WW], where [W] the […]
concentration of water (55.5 M) and [L] the lipid concentration. […]
The dissociation constant, Kd, is obtained from titration experiments of the P454-derived peptides by CaM and is expressed as follows: KK dd = [PP ]∗[CCCCCC ][PP:CCCCCC] , given KKdd[CCCCCC]= [PP ][PP :CCCCCC]and the fraction of complex, fP:CaM, i s: ffPP:CCCCCC = [PP :CCCCCC ][PP:CCCCCC]+[PP]= 11+ [PP ]= 11+ KKdd. […]
ratio 1:1 (at 70 µM each). […] Detection of protein concentration as a function of radial position and time was monitored with the ProteomeLab software (Beckman Coulter, […]
Brea, CA, USA) by both absorbance at 280 nm and interferometry. […] SV scans were analyzed using the continuous size distribution model c(s) of the software Sedfit 15. […]

[4] = Peptide titrations by SUVs followed by tryptophan fluorescence (solution-to-membrane partition); format: physicochemical
Protocol: Lipid vesicles preparation
Small unilamellar vesicles (SUVs) and large unilamellar vesicles (LUVs) were prepared with POPC and POPG at a molar ratio of 8:2, at a lipid concentration of 10 mM in buffer A, as previously described 1. Briefly, SUVs and LUVs were prepared by reverse phase evaporation and filtered through polycarbonate filters of 1 μm and 0.2 μm of pore size diameter to obtain L UV. SUVs were further sonicated. The hydrodynamic diameters and mean net charge of the vesicles were measured by dynamic light scattering (DLS) and electrophoretic mobility, respectively, using a ZetaSizer NanoZS (Malvern Pananalytical , Orsay, France) 11.
Peptide titrations bySUV s and CaM followed by tryptophan fluorescence
Titrations were carried out with a FP-8200 Jasco spectrofluorimeter, equipped with a Pelt ie r - thermostated ETC-272T at 25°C. A bandwidth of 5 nm was used for both excitation and […]
(Hellma, France) with constant stirring. Fluorescence emission was recorded between 300 and […]
as §1, §2, §3, §4
concentration of water (55.5 M) and [L] the lipid concentration.
The fraction of peptide partitioned into the membrane, fPL, is equal to:
ffPPLL = [PPLL ][PPTT ]= [PPLL ][PPLL ]+[PPWW ]= 11+([PPWW ])= 11+( [WW]), where PT is the total concentration of peptides [PP TT ]= [PP LL ]+ [PP WW ]. […]
The equations a re fitted to the experimental data using the KaleidaGraph software, providing the KX and K d value s. The partition coefficient is related to the apparent dissociation constant:
KKXX × KKdd = [WW ] and to the free energy of partition ΔG Kx = -RTln(K X), where ΔG is the free energy in kcal/mol, R the gas constant (R = 1.98 x 10-3 kcal/mol/K) and T the temperature i n Kelvin. The free energy of peptide CaM interaction, ∆G Kd, is given by ΔG Kd = RTln(K d).
Sedimentation velocity-Analytical ultracentrifugation (SV -AUC) […]
ratio 1:1 (at 70 µM each). Samples were incubated 2h at 20°C in the ultracentrifuge and, then span at 42,000 rpm in an An-50 Ti rotor. […]

CC[C@H](C)[C@H](NC(=O)[C@H](C)NC(=O)[C@H](Cc1c[nH]cn1)NC(=O)[C@@H](NC(=O)[C@H](CC(C)C)NC(=O)[C@H](CCCNC(=N)N)NC(=O)[C@H](CCC(N)=O)NC(=O)[C@H](C)NC(=O)[C@H](C)NC(=O)[C@H](C)NC(=O)[C@@H](NC(=O)[C@H](C)NC(=O)[C@H](CCC(N)=O)NC(=O)[C@H](C)NC(=O)CNC(=O)[C@H](CCC(N)=O)NC(=O)[C@H](CC(C)C)NC(=O)[C@H](C)NC(=O)[C@H](CCCNC(=N)N)NC(=O)[C@H](CCC(N)=O)NC(=O)CNC(=O)[C@H](Cc1c[nH]c2ccccc12)NC(=O)[C@H](Cc1c[nH]cn1)NC(=O)[C@H](C)NC(=O)[C@H](CO)NC(=O)[C@H](C)NC(C)=O)C(C)C)C(C)C)C(=O)N[C@@H](C)C(=O)N[C@@H](CC(C)C)C(=O)N[C@@H](CCSC)C(=O)N[C@H](C(=O)N[C@@H](CCC(N)=O)C(N)=O)[C@@H](C)O [P454]
CP1/2, peptide concentration required to induce recovery of 50% of ANTS fluorescence intensity upon LUVs permeabilization ([1]; ANTS:DPX LUVs POPC:POPG 8:2, 0.45 mM lipid, buffer A pH 7.4, 25 °C, ex 390/em 515 nm, S.D. ± 5%): 0.07 µM
Effect of holo-CaM addition on peptide-induced vesicle permeabilization ([1]; LUVs 0.45 mM lipid, buffer B (2 mM CaCl2), peptide:CaM molar ratio 1:3): immediately stopped
alpha-helical content, TFE 20% ([2]; 20% TFE): 60 ± 2%
alpha-helical content, POPC:POPG 8:2 ([2]; SUVs POPC:POPG 8:2 at 2 mM lipid): 50 ± 1%
alpha-helical content, Solution ([2]; buffer A): 17 ± 2%
Sedimentation coefficient [3]: 0.65 S
Partition coefficient KX ([4]; POPC:POPG 8:2 SUVs, buffer A pH 7.4, 25 °C, tryptophan fluorescence ratio 330/370 nm, S.D. within ± 10%): 790 ×10^3
Partition coefficient Kx ([4]; POPC:POPG 8:2 membranes): 790 000
Kd ([4]; converted from KX: [W]/KX = Kd, [W] = 55.5 M, read-out: Kd for POPC:POPG 8:2): 70 µM
∆GKx for POPC POPG 8:2 ([4]; ∆GKx = -RT Ln Kx, S.D. within ± 10%): -8 kcal/mol
